Source: patent US20260165323A1, “USE OF STROBILURIN TYPE COMPOUNDS FOR COMBATING PHYTOPATHOGENIC FUNGI CONTAINING AN AMINO ACID SUBSTITUTION F129L IN THE MITOCHONDRIAL CYTOCHROME B PROTEIN CONFERRING RESISTANCE TO QO […]” (priority 2022, published 2026)

Legend:
Type in all cases: in vivo
[1] = tested on: Phakopsora pachyrhizi containing the amino acid substitution F129L in the mitochondrial cytochrome b protein; experiment: Use Example 1: protective control of soybean rust on soybeans (PHAKPA P2); conditions: inoculated 2 days after spraying, % diseased leaf area
Outline: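 Protective test: plants were inoculated with the F129L cytochrome b rust strain 2 days after spraying to run-off, then held 24 h humid (~95% RH, 20-24° C) and up to 14 days at 23-27° C, 60-80% RH. Readout was visually assessed percent diseased leaf area.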

Puccinia recondita [2] = experiment: Use Example 3: curative control of brown rust on wheat (PUCCRT K4); conditions: % diseased leaf area
Method: The compound was dissolved in a mixture of acetone and/or dimethylsulfoxide and the wetting agent/emulsifier Wettol, which is based on ethoxylated alkylphenoles, in a ratio (volume) solvent-emulsifier of 99 to 1 to give a total volume of 5 ml. Subsequently, water was added to total volume of 100 ml. This stock solution was then diluted with the described solvent-emulsifier-water mixture to the final concentration given in the tables below.
Use Example 3. Curative Control of Brown Rust on Wheat Caused by Puccinia recondita (PUCCRT K4)
The first two developed leaves of potted wheat seedling were dusted with spores of Puccinia recondita. To ensure the success the artificial inoculation, the plants were transferred to a humid chamber without light and a relative humidity of 95 to 99% and 20 to 24° C. for 24 h. The next 3 days the plants were cultivated in a greenhouse chamber at 20 to 24° C. and a relative humidity between 65 and 70%. Then the plants were sprayed to run-off with previously described spray solution, containing the concentration of active ingredient or their mixture as described below. The plants were allowed to air-dry. Then the trial plants were cultivated for 5 to 7 days in a greenhouse chamber at 20 to 24° C. and a relative humidity between 65 and 70%. The extent of fungal attack on the leaves was visually assessed as % diseased leaf area, the disease level of untreated controls was usually between 80 and 100%.

Puccinia recondita [3] = experiment: Use Example 4: preventative control of brown rust on wheat (PUCCRT P7); conditions: inoculated seven days after spraying, % diseased leaf area
Outline: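 Preventative test: Puccinia recondita spores dusted onto wheat seedlings seven days after spraying their first two leaves to run-off with the formulated compound. After 24 h humid dark incubation at 20–24 °C and 9–11 days of greenhouse growth at 65–70% RH, infection rated visually as % diseased leaf area.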

[4] = tested on: Phakopsora pachyrhizi containing the amino acid substitution F129L in the mitochondrial cytochrome b protein; experiment: Use Example 2: protective control of soybean rust on soybeans (PHAKPA P6); conditions: inoculated six days after spraying, % diseased leaf area
Outline: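 Disease was rated visually as % diseased leaf area up to 14 days after inoculation (23–27°C, 60–80% RH). Inoculum was P. pachyrhizi carrying cytochrome b F129L, followed by 24 h in a humid chamber (~95% RH). Inoculation came six days after protective spraying of seedlings with compound in acetone/DMSO–Wettol–water.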

| SMILES | % PHAKPA (F129L) Disease level P2 at 4 ppm [1] [%] | % PHAKPA (F129L) Disease level P2 at 16 ppm [1] [%] | % PUCCRT Disease level K4 at 4 ppm (Puccinia recondita [2]) [%] | % PUCCRT Disease level K4 at 16 ppm (Puccinia recondita [2]) [%] | % PUCCRT Disease level P7 at 4 ppm (Puccinia recondita [3]) [%] | % PUCCRT Disease level P7 at 16 ppm (Puccinia recondita [3]) [%] | % PHAKPA (F129L) Disease level P6 at 4 ppm [4] [%] | % PHAKPA (F129L) Disease level P6 at 16 ppm [4] [%] |
| --- | --- | --- | --- | --- | --- | --- | --- | --- |
| CO/C=C(/C(=O)OC)c1cccc(Cl)c1CO/N=C(\COC)c1cccc(Cl)c1 [compound 39] | 2 | 0 | 9 | 1 | 3 | 0 | 10 | 1 |
| CCOC/C(=N\OCc1c(Cl)cccc1/C(=N\OC)C(=O)NC)c1cccc(Cl)c1 [compound 40] | 15 | 1 | 73 | 40 | 30 | 4 | 33 | 4 |
| CNC(=O)/C(=N/OC)c1cccc(Cl)c1CO/N=C(\COC)c1cccc(F)c1 [compound 41] | 3 | 0 | 72 | 12 | 23 | 4 | 14 | 1 |
| CCOC/C(=N\OCc1c(Cl)cccc1/C(=N\OC)C(=O)NC)c1cccc(F)c1 [compound 42] | 11 | 0 | 70 | 42 | 62 | 12 | 32 | 4 |
| CNC(=O)/C(=N/OC)c1cccc(Cl)c1CO/N=C(\COC)c1cccc(Cl)c1 [compound 43] | 6 | 0 | 72 | 10 | 10 | 3 | 20 | 2 |
| CCOC/C(=N\OCc1c(Cl)cccc1/C(=N\OC)C(=O)OC)c1ccc(Cl)cc1 [compound 44] | 95 | 55 | 75 | 73 | 77 | 37 | 80 | 68 |
| CCOC/C(=N\OCc1c(Cl)cccc1/C(=C\OC)C(=O)OC)c1ccc(Cl)cc1 [compound 45] | 60 | 8 | 80 | 68 | 82 | 27 | 70 | 15 |
| CCOC/C(=N\OCc1c(Cl)cccc1/C(=N\OC)C(=O)NC)c1ccc(Cl)cc1 [compound 46] | 80 | 20 | 67 | 38 | 60 | 10 | 68 | 16 |
| CCOC/C(=N\OCc1c(Cl)cccc1/C(=N\OC)C(=O)NC)c1ccc(F)cc1 [compound 48] | 80 | 7 | 77 | 50 | 63 | 17 | 80 | 17 |
| CNC(=O)/C(=N/OC)c1cccc(Cl)c1CO/N=C(\COC)c1ccccc1Cl [compound 50] | 92 | 32 | 75 | 72 | 70 | 33 | 87 | 36 |
| CCOC/C(=N\OCc1c(Cl)cccc1/C(=N\OC)C(=O)OC)c1ccccc1 [compound 53] | 88 | 57 | 83 | 78 | 87 | 78 | 93 | 80 |
| CCOCC(=NOCc1c(Cl)cccc1C(=COC)C(=O)OC)c1ccccc1 [compound 54] | 21 | 1 | 77 | 30 | 75 | 27 | 20 | 3 |
| CCOC/C(=N\OCc1c(Cl)cccc1/C(=N\OC)C(=O)NC)c1ccccc1 [compound 55] | 37 | 1 | 77 | 47 | 53 | 29 | 40 | 9 |
| CO/C=C(/C(=O)OC)c1cccc(Br)c1CO/N=C(\COC)c1ccccc1 [compound 59] | 0 | 0 | 11 | 0 | 22 | 0 | 1 | 0 |
| COC/C(=N\OCc1c(Cl)cccc1/C(=N\OC)C(=O)OC)c1ccc(F)cc1F [compound 62] | 5 | 0 | 37 | 2 | 55 | 1 | 6 | 0 |
| CCOC/C(=N\OCc1c(Br)cccc1/C(=C\OC)C(=O)OC)c1ccc(F)cc1 [compound 66] | 11 | 1 | 62 | 8 | 27 | 4 | 13 | 1 |
| CO/C=C(/C(=O)OC)c1cccc(Cl)c1CO/N=C(\COC)c1cc(F)c(F)c(F)c1 [compound 67] | 10 | 0 | 36 | 3 | 4 | 3 | 14 | 0 |
| CNC(=O)/C(=N/OC)c1cccc(Cl)c1CO/N=C(\COC)c1ccc(Cl)c(Cl)c1 [compound 69] | 43 | 7 | 33 | 3 | 7 | 3 | 15 | 1 |
| CO/C=C(/C(=O)OC)c1cccc(Cl)c1CO/N=C(\COC)c1ccc(Cl)c(Cl)c1 [compound 71] | 31 | 4 | 34 | 3 | 4 | 3 | 28 | 7 |
